pKd: −log10 of the molar value.
Biological target: T1, PYCR1 (recombinant human His-PYCR1) (Homo sapiens, UniProt P32322)
T1 sequence (P32322 2-319): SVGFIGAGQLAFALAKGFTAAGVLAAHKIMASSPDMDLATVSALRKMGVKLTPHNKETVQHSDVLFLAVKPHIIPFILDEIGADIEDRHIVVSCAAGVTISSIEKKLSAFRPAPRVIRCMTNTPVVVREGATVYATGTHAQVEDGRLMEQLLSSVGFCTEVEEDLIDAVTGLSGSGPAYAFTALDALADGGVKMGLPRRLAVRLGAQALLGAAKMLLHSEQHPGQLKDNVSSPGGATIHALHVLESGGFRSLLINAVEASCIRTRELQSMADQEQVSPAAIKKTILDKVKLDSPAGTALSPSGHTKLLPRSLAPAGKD
Assay: surface plasmon resonance
Format: binding

Nc1ncnc2c([C@@H]3O[C@H](CO)[C@@H](O)[C@H]3O)c[nH]c12 [9-DAA]
pKd: 5.10

Source: paper PMC12309613 (Translational Oncology, 2025)
